Results: US8703975B2, “Aryl (ethanoic) propanoic acid ascorbyl ester, preparation method thereof and medicament containing the same” (Wuxi Hongrui Bio-Pharma-Tech Co., Ltd., priority 2009, dated 2014)

Experiments:
[1] = Solubility in solvents and water; type: physicochemical
[2] = system: Arteriovenous Loop Thrombus; assay: Arteriovenous loop thrombus in rats, thrombus wet weight and inhibition rate; type: in vivo; details: 5.4 mg·kg^−1 by gavage for 3 days
Experimental: Normal rats, half male and half female, were randomly grouped according to table 1. The administration group was given water solution of Sodium Salt L-ascorbic acid-6-O—(S)-ibuprofen ester (pH 7.4) by gavage and the control group was given equivalent pH normal saline for continuous 3 days. The rat was intraperitoneally injected with 350 mg of 8% chloral hydrate per kg for anesthesia 1 h after the last administration, and then fixed in the supine position to separate the right common carotid artery and the left external jugular vein. An early weighed No. 7 operation line (about 8 cm long) was placed in the middle of a 10 cm long polyethylene tube, and then the tube was filled with normal saline and both ends of the tube were connected with an intubation filled with heparin (about 3 cm long), in which one end was inserted into the jugular vein, and the other end was inserted into the common carotid artery. After opening the artery clip, the in vitro loop flow was formed. The blood flow was interrupted after 15 min followed by quickly taking the thrombus and weighing. […]
Statistical analysis: the experimental data was represented as x±s, and the significance of the differences was determined with one-factor analysis of variance. t represented t-test results between the control group and the Sodium Salt L-ascorbic acid-6-O—(S)-ibuprofen ester.

Row | Solubility ([1]; in chloroform) | Solubility ([1]; in cyclohexane) | Solubility ([1]; in ethanol) | Solubility ([1]; in methanol) | Solubility ([1]; in propylene glycol) | Solubility ([1]; in water) | solubility in water ([1]; water) [g] | Structure (SMILES) | thrombus wet weight/body weight × 100 ([2]; 1 h after last administration, 15 min loop flow, x±s) | Thrombus inhibition rate ([2]; versus control group) [%]
1 | insoluble | insoluble | soluble | soluble | soluble | insoluble | – | CC(C)Cc1ccc([C@H](C)C(=O)OC[C@H](O)[C@H]2OC(=O)C(O)=C2O)cc1 [Embodiment 1, L-Ascorbic Acid-6-O—(S)-Ibuprofen Ester] | – | –
2 | – | – | – | – | – | – | 12.8 | CC(C)Cc1ccc([C@H](C)C(=O)OC[C@H](O)[C@H]2OC(=O)C(O)=C2[O-])cc1.[Na+] [Sodium Salt L-Ascorbic Acid-6-O—(S)-Ibuprofen Ester] | 10.372 ± 0.801 | 12.9
